Measurements reported in article PMC11879280, “Antimicrobial activity of peptoids against Metallo-β-lactamase-producing Klebsiella pneumoniae, Acinetobacter baumannii, Pseudomonas aeruginosa, and other WHO priority pathogens, including Candida auris” (Journal of Applied Microbiology, 2025).
Read-outs that look alike come from different tables or passages of the source. Square brackets hold non-standard residues; d marks the D form. Ends that are not written are not given here. Peptide text beside a SMILES is read from it. Nspe(4-Br) = C[C@H](NCC(=O)O)c1ccc(Br)cc1; N(tridecyl)Gly = CCCCCCCCCCCCCNCC(=O)O; Nspe = C[C@H](NCC(=O)O)c1ccccc1; Nlys = NCCCCNCC(=O)O

What was measured:
[1] = tested on: S. aureus 04
Method in brief: (§1)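 Cation-adjusted MHB for antibiotics, plain MHB for peptidomimetics; 5 × 10^5 CFU ml^−1; 16–20 h at 37°C, 120 rpm. Geometric mean MIC across pathogens calculated for peptoids.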

[2] = tested on: E. coli 0011
Method in brief: as §1

[3] = tested on: A. baumannii 005
Method in brief: as §1

[4] = tested on: S. aureus 117
Method in brief: as §1

[5] = tested on: A. baumannii 007
Method in brief: as §1

[6] = tested on: En. cloacae 003
Method in brief: as §1

[7] = tested on: P. aeruginosa 33
Method in brief: as §1

[8] = tested on: Enteroc. faecalis NCTC 13 379
Method in brief: as §1

[9] = tested on: E. coli 0015
Method in brief: as §1

[10] = tested on: C. auris CBS10913
[11] = S. aureus 004, MHB (melimine/Mel4 with 0.2% BSA, 0.01% acetic acid), mean MIC
[12] = S. aureus 004, value in brackets
[13] = E. coli 0011, MHB (melimine/Mel4 with 0.2% BSA, 0.01% acetic acid), mean MIC
[14] = E. coli 0011, value in brackets
[15] = A. baumannii 005, MHB (melimine/Mel4 with 0.2% BSA, 0.01% acetic acid), mean MIC
[16] = A. baumannii 005, value in brackets
[17] = S. aureus 117, MHB (melimine/Mel4 with 0.2% BSA, 0.01% acetic acid), mean MIC
[18] = S. aureus 117, value in brackets
[19] = A. baumannii 007, MHB (melimine/Mel4 with 0.2% BSA, 0.01% acetic acid), mean MIC
[20] = A. baumannii 007, value in brackets
[21] = En. cloacae 003, MHB (melimine/Mel4 with 0.2% BSA, 0.01% acetic acid), mean MIC
[22] = En. cloacae 003, value in brackets
[23] = P. aeruginosa 33, MHB (melimine/Mel4 with 0.2% BSA, 0.01% acetic acid), mean MIC
[24] = P. aeruginosa 33, value in brackets
[25] = Enteroc. faecalis NCTC 13 379, MHB (melimine/Mel4 with 0.2% BSA, 0.01% acetic acid), mean MIC
[26] = E. coli 0015, MHB (melimine/Mel4 with 0.2% BSA, 0.01% acetic acid), mean MIC
[27] = E. coli 0015, value in brackets
[28] = CBS 10 913, RPMI 1640 with MOPS, 5 × 10^3 CFU ml^−1, ≥90% reduction (≥50% for fluconazole)

C[C@@H](c1ccccc1)N(CC(N)=O)C(=O)CN(CCCCN)C(=O)CN(C(=O)CN(C(=O)CN(CCCCN)C(=O)CN(C(=O)CN(C(=O)CN(CCCCN)C(=O)CN(C(=O)CN(C(=O)CNCCCCN)[C@@H](C)c1ccccc1)[C@@H](C)c1ccccc1)[C@@H](C)c1ccccc1)[C@@H](C)c1ccccc1)[C@@H](C)c1ccccc1)[C@@H](C)c1ccccc1 [TM6] (H-[Nlys][Nspe][Nspe][Nlys][Nspe][Nspe][Nlys][Nspe][Nspe][Nlys][Nspe]-NH2)
MIC of peptidomimetics [1, 11]: 7.8 µg/mL | MIC of peptidomimetics [1, 12]: 4.7 µM | MIC of peptidomimetics [2, 13]: 15.6 µg/mL | MIC of peptidomimetics [2, 14]: 9.4 µM | MIC of peptidomimetics [3, 15]: 7.8 µg/mL | MIC of peptidomimetics [3, 16]: 4.7 µM | MIC of peptidomimetics [4, 17]: 7.8 µg/mL | MIC of peptidomimetics [4, 18]: 4.7 µM | MIC of peptidomimetics [5, 19]: 7.8 µg/mL | MIC of peptidomimetics [5, 20]: 4.7 µM | MIC of peptidomimetics [6, 21]: 15.6 µg/mL | MIC of peptidomimetics [6, 22]: 9.4 µM | MIC of peptidomimetics [7, 23]: 31.3 µg/mL | MIC of peptidomimetics [7, 24]: 18.8 µM | MIC of peptidomimetics [8, 25]: 31.25 µg/mL | MIC of peptidomimetics ([8]; Enteroc. faecalis NCTC 13 379, value in brackets): 18.8 µM | MIC of peptidomimetics [9, 26]: 62.5 µg/mL | MIC of peptidomimetics [9, 27]: 37.7 µM | MIC against C. auris [10, 28]: 31.25 µg/mL | MIC against C. auris ([10]; CBS 10 913, value in brackets): 18.8 µM

C[C@@H](c1ccc(Br)cc1)N(CC(=O)N(CCCCN)CC(=O)N(CC(=O)N(CC(=O)N(CCCCN)CC(N)=O)[C@@H](C)c1ccc(Br)cc1)[C@@H](C)c1ccccc1)C(=O)CN(C(=O)CNCCCCN)[C@@H](C)c1ccccc1 [TM12] (H-[Nlys][Nspe][Nspe(4-Br)][Nlys][Nspe][Nspe(4-Br)][Nlys]-NH2)
MIC of peptidomimetics [1]; 04: 3.3 µM | MIC of peptidomimetics [1, 11]: 3.9 µg/mL | MIC of peptidomimetics [2]; 0011: 25.9 µM | MIC of peptidomimetics [2, 13]: 31.3 µg/mL | MIC of peptidomimetics [3]; 005: 51.8 µM | MIC of peptidomimetics [3, 15]: 62.5 µg/mL | MIC of peptidomimetics [4]; 117: 3.3 µM | MIC of peptidomimetics [4, 17]: 3.9 µg/mL | MIC of peptidomimetics [5]; 007: 51.8 µM | MIC of peptidomimetics [5, 19]: 62.5 µg/mL | MIC of peptidomimetics [6]: 3.3 µM | MIC of peptidomimetics [6, 21]: 3.9 µg/mL | MIC of peptidomimetics [7]; 33: 3.3 µM | MIC of peptidomimetics [7, 23]: 3.9 µg/mL | MIC of peptidomimetics [8, 25]: 7.8 µg/mL | MIC of peptidomimetics ([8]; NCTC 13): 6.5 µM | MIC of peptidomimetics [9]; 0015: 51.8 µM | MIC of peptidomimetics [9, 26]: 62.5 µg/mL | MIC against C. auris [10, 28]: 62.5 µg/mL | MIC against C. auris ([10]; CBS10913): 51.9 µM

C[C@@H](c1ccc(Br)cc1)N(CC(N)=O)C(=O)CN(C(=O)CN(CCCCN)C(=O)CN(C(=O)CN(C(=O)CNCCCCN)[C@@H](C)c1ccccc1)[C@@H](C)c1ccc(Br)cc1)[C@@H](C)c1ccccc1 [TM2] (H-[Nlys][Nspe][Nspe(4-Br)][Nlys][Nspe][Nspe(4-Br)]-NH2)
MIC of peptidomimetics [1]; 04: 3.9 µg/mL | MIC of peptidomimetics [2]; 0011: 58.1 µM | MIC of peptidomimetics [2, 13]: 62.5 µg/mL | MIC of peptidomimetics [3]; 005: 7.2 µM | MIC of peptidomimetics [3, 15]: 7.8 µg/mL | MIC of peptidomimetics [4]; 117: 7.2 µM | MIC of peptidomimetics [4, 17]: 7.8 µg/mL | MIC of peptidomimetics [5]; 007: 29.0 µM | MIC of peptidomimetics [5, 19]: 31.3 µg/mL | MIC of peptidomimetics [6]: 29.0 µM | MIC of peptidomimetics [6, 21]: 31.3 µg/mL | MIC of peptidomimetics [7]; 33: 29.0 µM | MIC of peptidomimetics [7, 23]: 31.3 µg/mL | MIC of peptidomimetics [8, 25]: 31.3 µg/mL | MIC of peptidomimetics ([8]; NCTC 13): 29.0 µM | MIC of peptidomimetics [9]; 0015: 58.1 µM | MIC of peptidomimetics [9, 26]: 62.5 µg/mL | MIC against C. auris [10, 28]: 31.25 µg/mL | MIC against C. auris ([10]; CBS10913): 29 µM

KNKRKRRRRRRGGRRRR [Mel4]
MIC of peptidomimetics [1, 11]: 62.5 µg/mL | MIC of peptidomimetics [2, 13]: 62.5 µg/mL | MIC of peptidomimetics [3, 15]: 250 µg/mL | MIC of peptidomimetics [4, 17]: 62.5 µg/mL | MIC of peptidomimetics [5, 19]: 250 µg/mL | MIC of peptidomimetics [6, 21]: 250 µg/mL | MIC of peptidomimetics [7, 23]: 62.5 µg/mL | MIC of peptidomimetics [8, 25]: 500 µg/mL | MIC of peptidomimetics [9, 26]: 62.5 µg/mL | MIC against C. auris [10, 28]: 125 µg/mL

TLISWIKNKRKQRPRVSRRRRRRGGRRRR [Melimine]
MIC of peptidomimetics [1, 11]: 31.3 µg/mL | MIC of peptidomimetics [1, 12]: 8.2 µM | MIC of peptidomimetics [2, 13]: 125 µg/mL | MIC of peptidomimetics [2, 14]: 33.0 µM | MIC of peptidomimetics [3, 15]: 125 µg/mL | MIC of peptidomimetics [3, 16]: 33.0 µM | MIC of peptidomimetics [4, 17]: 31.3 µg/mL | MIC of peptidomimetics [4, 18]: 8.2 µM | MIC of peptidomimetics [5, 19]: 125 µg/mL | MIC of peptidomimetics [5, 20]: 33.0 µM | MIC of peptidomimetics [6, 21]: 125 µg/mL | MIC of peptidomimetics [6, 22]: 33.0 µM | MIC of peptidomimetics [7, 23]: 62.5 µg/mL | MIC of peptidomimetics [7, 24]: 16.5 µM | MIC of peptidomimetics [8, 25]: 500 µg/mL | MIC of peptidomimetics [9, 26]: 125 µg/mL | MIC of peptidomimetics [9, 27]: 33.0 µM | MIC against C. auris [10, 28]: 125 µg/mL | MIC against C. auris ([10]; CBS 10 913, value in brackets): 33.0 µM

CCCCCCCCCCCCCNCC(=O)N(CCCCN)CC(=O)N(CC(=O)N(CC(=O)N(CCCCN)CC(=O)N(CCCCN)CC(N)=O)[C@@H](C)c1ccccc1)[C@@H](C)c1ccccc1 [TM15] (H-[N(tridecyl)Gly][Nlys][Nspe][Nspe][Nlys][Nlys]-NH2)
MIC of peptidomimetics [1]; 04: 8.1 µM | MIC of peptidomimetics [1, 11]: 7.8 µg/mL | MIC of peptidomimetics [2]; 0011: 64.9 µM | MIC of peptidomimetics [2, 13]: 62.5 µg/mL | MIC of peptidomimetics [3]; 005: 64.9 µM | MIC of peptidomimetics [3, 15]: 62.5 µg/mL | MIC of peptidomimetics [4]; 117: 8.1 µM | MIC of peptidomimetics [4, 17]: 7.8 µg/mL | MIC of peptidomimetics [5]; 007: 64.9 µM | MIC of peptidomimetics [5, 19]: 62.5 µg/mL | MIC of peptidomimetics [6]: 64.9 µM | MIC of peptidomimetics [6, 21]: 62.5 µg/mL | MIC of peptidomimetics [7]; 33: 16.2 µM | MIC of peptidomimetics [7, 23]: 15.6 µg/mL | MIC of peptidomimetics [8, 25]: 31.3 µg/mL | MIC of peptidomimetics ([8]; NCTC 13): 32.4 µM | MIC of peptidomimetics [9]; 0015: 16.2 µM | MIC of peptidomimetics [9, 26]: 15.6 µg/mL | MIC against C. auris [10, 28]: 250 µg/mL | MIC against C. auris ([10]; CBS10913): 259.6 µM

C[C@@H](c1ccc(Br)cc1)N(CC(=O)N(CCCCN)CC(=O)N(CC(=O)N(CC(=O)N(CCCCN)CC(N)=O)[C@@H](C)c1ccc(Br)cc1)[C@@H](C)c1ccc(Br)cc1)C(=O)CN(C(=O)CNCCCCN)[C@@H](C)c1ccc(Br)cc1 [TM14] (H-[Nlys][Nspe(4-Br)][Nspe(4-Br)][Nlys][Nspe(4-Br)][Nspe(4-Br)][Nlys]-NH2)
MIC of peptidomimetics [1]; 04: 5.7 µM | MIC of peptidomimetics [1, 11]: 7.8 µg/mL | MIC of peptidomimetics [2]; 0011: 23.0 µM | MIC of peptidomimetics [2, 13]: 31.3 µg/mL | MIC of peptidomimetics [3]; 005: 11.4 µM | MIC of peptidomimetics [3, 15]: 15.6 µg/mL | MIC of peptidomimetics [4]; 117: 5.7 µM | MIC of peptidomimetics [4, 17]: 7.8 µg/mL | MIC of peptidomimetics [5]; 007: 23.0 µM | MIC of peptidomimetics [5, 19]: 31.3 µg/mL | MIC of peptidomimetics [6]: 45.9 µM | MIC of peptidomimetics [6, 21]: 62.5 µg/mL | MIC of peptidomimetics [7]; 33: 11.5 µM | MIC of peptidomimetics [7, 23]: 15.6 µg/mL | MIC of peptidomimetics [8, 25]: 7.8 µg/mL | MIC of peptidomimetics ([8]; NCTC 13): 5.7 µM | MIC of peptidomimetics [9]; 0015: 23.0 µM | MIC of peptidomimetics [9, 26]: 31.3 µg/mL | MIC against C. auris [10, 28]: 15.6 µg/mL | MIC against C. auris ([10]; CBS10913): 11.5 µM
